Test results taken from patent US6900200B2, “Tricyclic hydroxy carboxamides and derivatives thereof tocolytic oxytocin receptor antagonists” (Wyeth, priority 2001, dated 2005).

Tests used:
[1] = molecular target: T1, human vasopressin V2 receptor subtype (Homo sapiens, UniProt P30518); assay: Vasopressin binding in CHO cell membranes expressing human vasopressin V2 subtype receptors ([3H]arginine vasopressin radioligand binding); settings: for IC50: value printed in parentheses; for inhibition at 0.1 µM: @ 100 nM
T1 construct: host or cells: CHO cells, pZeoSV vector
Source text: Vasopressin Binding in Chinese Hamster Ovary Cell Membranes Expressing Human Vasopressin V2 Subtype Receptors
Chinese Hamster Ovary (CHO) cells stably transfected with the human V2 subtype receptors were obtained from M. Thibonnier, Case Western Reserve University School of Medicine, Cleveland, Ohio.
A. Passaging and Amplification of Cells
CHO cells transfected with the human vasopressin V2 subtype receptors obtained from M. Thibonnier (pZeoSV vector) are allowed to grow to confluency (approx. >90%) in T-150 flasks under sterile conditions, in a cell culture medium ofF-12 Nutrient Mixture (HAM) with L-glutamine (Gibco Cat. #11765-054) containing 15 mM HEPES (Gibco Cat. #15630-080), 1% antibiotic/antimycotic (add 5 mL 100×, Gibco Cat. #15240-062 per 500 mL F-12), 250 μg/mL Zeocin (add 1.25 mL of 100 mg/mL Invitrogen R-250-01 per 500 mL F-1 2) and 10% Fetal Bovine Serum (Qualified, heat inactivated, Gibco Cat. #16140-063). The medium is removed by aspiration and the cells washed with 10 mL of Hank's Balanced Salt solution (Gibco Cat. #14175-095). The salt solution is removed by aspiration and the cells trypsinized with 5 mL of trypsin-EDTA (0.05% trypsin, 0.53 mM EDTA-4Na, Gibco Cat. #25300-070) for 1 min. The trypsin is removed by aspiration and the cells dislodged by tapping. Cell Culture medium (e.g. 30 mL for 1:30 split) is immediately added and mixed well to inactivate trypsin. 1 mL of detached cells is added to new culture flasks containing fresh Cell Culture medium (e.g. into 25 mL per T-150 flask), and mixed gently. The cells are incubated at 37° C. in 5% CO2. The medium is changed at 3 to 4 day interval (or as appropriate). The cells grow to confluency (approx. >75%-95%) within 7-8 days. All steps are done under sterile conditions.
The cells are washed twice gently with Hank's Balanced Salt solution (e.g. use 10 mL per T-150 flask). The excess solution is removed and the cells bathed for 15-30 min. in an enzyme-free Cell Dissociation Buffer (e.g. use 8 mL Hank's Based, Gibco Cat. # 13150-016 per T-150 flask) until cells are loosened. The contents are transferred to centrifuge tubes (50 mL) kept in ice bath. All subsequent steps are done at 4° C. The tubes are centrifuged at 300×g for 15 min (1380 rpm on SORVAL, Model RT6000D, using the rotor for 50 mL tubes). The supernatant is discarded and the cells suspended in homogenizing buffer (10 mM Tris-HCl containing 0.25 M sucrose and 1 mM EDTA, pH 7.4) ensuring that the volume of the buffer is about ten times the volume of the cell pellet. The cells are pooled into a centrifuge tube (50 mL) and homogenized with Polytron at setting 6 for 10 sec. The homogenate is transferred into a Potter-Elvjehm homogenizer and homogenized with 3 strokes. The homogenate is centrifuged at 1500×g for 60 min at 4° C. (3100 rpm using SORVAL, model RT6000D, using the rotor for 50 mL tubes). The pellet is discarded. The supernatant is centrifuged at 100,000×g for 60 min. at 4° C. (Beckman L8-80M ultracentrifuge; spin at 37,500 rpm with rotor type 70 Ti for 50 mL tubes; 38,000 rpm with type 80Ti for 15 mL tubes; or 35,800 rpm with rotor type 45Ti). The supernantant is discarded and the pellet suspended in 3 to 4 mL of Tris buffer (50 mM TRIS—HCl, pH 7.4). The protein content is estimated by the Bradford or Lowry method. The volume of the membrane suspension is adjusted with the membrane buffer (50 mM Tris-HCl containing 0.1% BSA and 0.1 mM PMSF) to give 3.0 mg/mL (or as appropriate) of protein. The membranes are aliquoted and stored at −70. ° C.
C. Radioligand Binding Assay
In wells of a 96-well format microtiter plate, is added 90, 110 or 130 μL (to make up a final volume of 200 μL) of assay buffer containing 50 mM of Tris-HCl (pH 7.4), […], 1 mg % aprotinin, 1 mg % leupeptin, 2 mg % 1,10-phenanthroline, 10 mg % trypsin inhibitor, and 0.1 mM PMSF. The inhibitors are added on the day of the experiment. […]

IC50 [1]	melting point	inhibition at 0.1 µM [1]	Compound
11.3 nM			Cc1ccc(-c2ccc(C(=O)N3Cc4ccc(C(=O)N(C)CC(O)CO)n4Cc4ccccc43)cc2)c2ccccc12 (centres unmarked) [Example 26, 10-{[4-(4-Methyl-naphthalen-1-yl)phenyl]carbonyl}-10,11-dihydro-5H-pyrrolo[2,1-c][1,4]benzodiazepine-3-carboxylic acid (2,3-dihydroxy-propyl)-N-methylamide]
383 nM			COc1cc(-c2ccccc2C)c(Cl)cc1C(=O)N1Cc2ccc(C(=O)N3CCN(CCO)CC3)n2Cc2ccccc21 [Example 39, {10-[(6-Chloro-3-methoxy-2′-methyl[1,1′-biphenyl]-4-yl)carbonyl]-10,11-dihydro-5H-pyrrolo[2,1-c][1,4]benzodiazepin-3-yl}[4-(2-hydroxyethyl)-1-piperazinyl]methanone]
		25%	COc1ccccc1-c1ccc(C(=O)N2Cc3ccc(C(=O)N4CCN(CCO)CC4)n3Cc3ccccc32)cc1C [Example 40, [4-(2-Hydroxyethyl)-1-piperazinyl]{10-[(2′-methoxy-2-methyl[1,1′-biphenyl]-4yl)carbonyl]-10,11-dihydro-5H-pyrrolo[2,1-c][1,4]benzodiazepin-3-yl}methanone]
		35%	COc1cc(C(=O)N2Cc3ccc(C(=O)N4CCN(CCO)CC4)n3Cc3ccccc32)ccc1-c1cccc2ccccc12 [Example 41, [4-(2-Hydroxyethyl)-1-piperazinyl]{10-[3-methoxy-4-(1-naphthyl)benzoyl]-10,11-dihydro-5H-pyrrolo[2,1-c][1,4]benzodiazepin-3-yl}methanone]
		27%	COc1ccccc1-c1ccc(C(=O)N2Cc3ccc(C(=O)N4CCN(CCO)CC4)n3Cc3ccccc32)cc1OC [Example 43, {10-[(2,2′-Dimethoxy[1,1′-biphenyl]-4-yl)carbonyl]-10,11-dihydro-5H-pyrrolo[2,1-c][1,4]benzodiazepin-3-yl}[4-(2-hydroxyethyl)-1-piperazinyl]methanone]
		14%	Cc1ccccc1-c1ccc(C(=O)N2Cc3ccc(C(=O)N4CCN(CCO)CC4)n3Cc3ccccc32)cc1C [Example 46, {10-[(2,2′-Dimethyl[1,1′-biphenyl]-4-yl)carbonyl]-10,11-dihydro-5H-pyrrolo[2,1-c][1,4]benzodiazepin-3-yl}[4-(2-hydroxyethyl)-1-piperazinyl]methanone]
		16%	COc1ccccc1-c1ccc(C(=O)N2Cc3ccc(C(=O)N4CCN(CCO)CC4)n3Cc3ccccc32)cc1 [Example 47, [4-(2-Hydroxyethyl)-1-piperazinyl]{10-[(2′-methoxy[1,1′-biphenyl]-4-yl)carbonyl]-10,11-dihydro-5H-pyrrolo[2,1-c][1,4]benzodiazepin-3-yl}methanone]
		11%	Cc1cc(C(=O)N2Cc3ccc(C(=O)N4CCN(CCO)CC4)n3Cc3ccccc32)ccc1-c1ccccc1C(F)(F)F [Example 48, [4-(2-Hydroxyethyl)-1-piperazinyl](10-{[2-methyl-2′-(trifluoromethyl)[1,1′-biphenyl]-4-yl)carbonyl}-10,11-dihydro-5H-pyrrolo[2,1-c][1,4]benzodiazepin-3-yl)methanone]
		3%	COc1cc(C(=O)N2Cc3ccc(C(=O)N4CCN(CCO)CC4)n3Cc3ccccc32)ccc1-n1c(C)ccc1C [Example 52, {10-[4-(2,5-Dimethyl-1H-pyrrol-1-yl)-3-methoxybenzoyl]-10,11-dihydro-5H-pyrrolo[2,1-c][1,4]benzodiazepin-3-yl}[4-(2-hydroxyethyl)-1-piperazinyl]methanone]

Continued, compound first:

Compound	IC50 [1]	melting point	inhibition at 0.1 µM [1]
Cc1cc(C(=O)N2Cc3ccc(C(=O)N(C)CC(O)CO)n3Cc3ccccc32)ccc1-c1ccccc1C(F)(F)F (centres unmarked) [Example 2, 10-[(2-Methyl-2′-trifluoromethyl-[1,1′-biphenyl]-4-yl)carbonyl]-10,11-dihydro-5H-pyrrolo[2,1-c][1,4]benzodiazepine-3-carboxylic acid (2,3-dihydroxy-propyl)-methyl-amide]	633 nM	169 to 172 °C	
COCCN1CCN(C(=O)c2ccc3n2Cc2ccccc2N(C(=O)c2ccc(-c4ccccc4C(F)(F)F)c(C)c2)C3)CC1 [Example 7, Methyl 2-{4-[(10-{[2-methyl-2′-trifluoromethyl-[1,1′-biphenyl]-4-yl]carbonyl}-10,11-dihydro-5H-pyrrolo[2,1-c][1,4]benzodiazepin-3-yl)carbonyl]piperazin-1-yl}ethyl ether]		140 to 144 °C	16%
O=C(c1ccc2n1Cc1ccccc1N(C(=O)c1ccc(-c3cccc4ccccc34)cc1Cl)C2)N1CCN(CCO)CC1 [Example 25, 2-{4-[10-{[2-Chloro-4-(naphthalen-1-yl)phenyl]carbonyl}-(10,11-dihydro-5H-pyrrolo[2,1-c][1,4]benzodiazepin-3-yl)carbonyl]piperazine-1-yl}-1-hydroxyethane]			21%
COc1cc(C(=O)N2Cc3ccc(C(=O)N4CCN(CCO)CC4)n3Cc3ccccc32)ccc1-c1ccccc1C [Example 42, [4-(2-Hydroxyethyl)-1-piperazinyl]{10-[(2-methoxy-2′-methyl[1,1′-biphenyl]-4yl)carbonyl]-10,11-dihydro-5H-pyrrolo[2,1-c][1,4]benzodiazepin-3-yl}methanone]			27%
COc1cccc(-c2ccc(C(=O)N3Cc4ccc(C(=O)N5CCN(CCO)CC5)n4Cc4ccccc43)cc2C)c1 [Example 44, [4-(2-Hydroxyethyl)-1-piperazinyl]{10-[(3′-methoxy-2-methyl[1,1′-biphenyl]-4yl)carbonyl]-10,11-dihydro-5H-pyrrolo[2,1-c][1,4]benzodiazepin-3-yl}methanone]			13%
Cc1ccccc1-c1ccc(C(=O)N2Cc3ccc(C(=O)N4CCN(CCO)CC4)n3Cc3ccccc32)cc1 [Example 45, [4-(2-Hydroxyethyl)-1-piperazinyl]{10-[(2′-methyl[1,1′-biphenyl]-4-yl)carbonyl]-10,11-dihydro-5H-pyrrolo[2,1-c][1,4]benzodiazepin-3-yl}methanone]			9%
COc1cccc(-c2cc(OC)c(C(=O)N3Cc4ccc(C(=O)N5CCN(CCO)CC5)n4Cc4ccccc43)cc2Cl)c1 [Example 49, {10-[(6-Chloro-3,3′-dimethoxy[1,1′-biphenyl]-4-yl)carbonyl]-10,11-dihydro-5H-pyrrolo[2,1-c][1,4]benzodiazepin-3-yl}[4-(2-hydroxyethyl)-1-piperazinyl]methanone]			21%
COc1cccc(-c2ccc(C(=O)N3Cc4ccc(C(=O)N5CCN(CCO)CC5)n4Cc4ccccc43)cc2OC)c1 [Example 50, {10-[(2,3′-Dimethoxy[1,1′-biphenyl]-4-yl)carbonyl]-10,11-dihydro-5H-pyrrolo[2,1-c][1,4]benzodiazepin-3-yl}[4-(2-hydroxyethyl)-1-piperazinyl]methanone]			16%
{(2S)-1-[(10-{[2-Methoxy-2(trifluoromethyl)[1,1′-biphenyl]-4-yl]carbonyl}-10,11-dihydro-5H-pyrrolo[2,1-c][1,4]benzodiazepin-3-yl)carbonyl]pyrrolidin-2-yl}-methanol [Example 36]	2070 nM		
